Measured values published in ChEMBL document CHEMBL1821608, “Fragment library screening reveals remarkable similarities between the G protein-coupled receptor histamine H₄ and the ion channel serotonin 5-HT₃A” (Bioorg Med Chem Lett, 2011).
Activity calls are given as the source filed them. The calls are words filed in the database; no cut-off is given here.

Legend:
[1] = biological target: T1, 5-hydroxytryptamine receptor 3A (Homo sapiens) (UniProt P46098); test: Displacement of [3H]granisetron from human 5-HT3AR expressed in HEK293 cells after 24 hrs by liquid scintillation counting; assay type: cell-based
T1 sequence (whole entry): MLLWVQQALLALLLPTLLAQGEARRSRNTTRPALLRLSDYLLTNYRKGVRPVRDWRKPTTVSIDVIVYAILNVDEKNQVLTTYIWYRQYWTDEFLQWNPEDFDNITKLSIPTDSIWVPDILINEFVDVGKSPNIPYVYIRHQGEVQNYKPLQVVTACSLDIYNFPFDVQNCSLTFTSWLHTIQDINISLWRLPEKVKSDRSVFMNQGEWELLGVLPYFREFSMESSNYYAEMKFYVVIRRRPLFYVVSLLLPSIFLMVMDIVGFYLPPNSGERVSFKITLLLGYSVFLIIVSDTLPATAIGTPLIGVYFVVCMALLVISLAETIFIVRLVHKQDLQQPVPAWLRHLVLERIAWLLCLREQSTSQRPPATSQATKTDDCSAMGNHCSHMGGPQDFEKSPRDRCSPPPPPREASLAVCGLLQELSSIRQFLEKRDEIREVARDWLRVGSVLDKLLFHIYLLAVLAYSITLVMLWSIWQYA

[2] = biological target: T1, 5-hydroxytryptamine receptor 3A (Homo sapiens); test: Inhibition of 5-HT3AR at 10 uM
Histamine H4 receptor [3] = biological target: T2, Histamine H4 receptor (Homo sapiens, UniProt Q9H3N8); test: Displacement of [3H]histamine from human H4R receptor expressed in HEK293 cells at 10 uM after 1.5 hrs by liquid scintillation counting; assay type: cell-based
Histamine H4 receptor [4] = biological target: T2, Histamine H4 receptor; test: Binding affinity to H4R receptor

T2 sequence (Q9H3N8 whole entry): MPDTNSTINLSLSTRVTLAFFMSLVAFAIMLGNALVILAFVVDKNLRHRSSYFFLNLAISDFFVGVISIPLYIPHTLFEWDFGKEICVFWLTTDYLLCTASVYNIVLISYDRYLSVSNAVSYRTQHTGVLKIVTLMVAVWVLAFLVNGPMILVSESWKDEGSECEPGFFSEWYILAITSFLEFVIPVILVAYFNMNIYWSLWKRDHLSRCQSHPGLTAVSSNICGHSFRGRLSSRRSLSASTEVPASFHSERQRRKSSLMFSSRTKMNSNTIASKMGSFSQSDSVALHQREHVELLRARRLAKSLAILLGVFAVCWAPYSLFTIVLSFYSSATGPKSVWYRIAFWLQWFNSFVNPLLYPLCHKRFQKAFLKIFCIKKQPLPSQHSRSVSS

c1cncc(Cc2c[nH]cn2)c1
pKi [1]: inactive

Nc1nc2c(c(N3CCNCC3)n1)CCCc1ccccc1-2
inhibition [2]: 98%

c1ccc(CNCCc2c[nH]cn2)cc1
pKi [1]: inactive

N=C(N)NCCCc1ccccc1
pKi (Histamine H4 receptor [3]): inactive

CN1CCN(c2cc(-c3ccccc3)ncn2)CC1
pKi [1]: inactive

Nc1nc2c(c(N3CCNCC3)n1)CCC1=C2[C@@H]2CCCC[C@@H]2O1
Ki (Histamine H4 receptor [4]): 79.4 nM

Nc1ccc2cc3ccccc3nc2c1
pKi (Histamine H4 receptor [3]): inactive

Clc1ccc(C2CCNC2)cc1 (stereo not drawn)
pKi (Histamine H4 receptor [3]): inactive
